Measurements published in PMC6943638, “Lectin PLL3, a Novel Monomeric Member of the Seven-Bladed β-Propeller Lectin Family” (Molecules, 2019).
Like-named read-outs stand apart in the source and are kept apart here.

How the values were obtained:
PLL3 [1] = target: T1, PLL3 (Photorhabdus laumondii subsp. laumondii, UniProt Q7N8I7); test: Surface plasmon resonance, apparent KD on immobilized glycans; format: binding; details: SPR, immobilized glycan, PLL3 100 to 0.195 μM, steady-state
Description: (§1) SPR experiments were performed in a BIAcore T200 instrument (GE Healthcare, UK) using a four-channel sensor chip CM5 with a carboxymethyldextran surface layer (GE Healthcare, UK). Saccharides were immobilized on the chip surface using the procedure as described elsewhere. Immobilization was performed in the HBS buffer (10 mM HEPES, 150 mM NaCl, 0.05% Tween 20, pH 7.5) at a flow rate of 10 μL min^−1. For OMeDis immobilization, the surface of the channel was activated with N-hydroxysuccinimide/N-ethyl-N-(3-dimethylaminopropyl)carbodiimide solution (NHS/EDC) and subsequently OMeDis covalently modified by linker (-O-(p-C6H4)-OCH2CH2NH2) in HBS was injected. The final response of immobilized OMeDis was 136 RU. Non-reacted groups were blocked by 1 M ethanolamine/HCl (pH 8.5). A corresponding blank channel was prepared the same way, omitting the ligand injection. […] Biotinylated α-L-fucoside was injected onto this channel to the final response of 63 RU. A corresponding blank channel was prepared the same way without the injection of biotinylated fucoside.
(§2) Between individual injections, the channels were regenerated by 50 mM NaOH for 30 s. The experiment was run at a flow rate of 30 μL min^−1 and a contact time of 120 s. The concentration of PLL3 ranged from 100 μM to 0.195 μM. An apparent KD was calculated in BIAevaluation software using the steady-state approach.

PLL3 [2] = test: as above; format: binding, Photorhabdus laumondii subsp. laumondii; details: PLL3 compared with PLL2 and PHL of ref 17
Description: as §1, §2

PLL3 [3] = target: T1, PLL3; test: Hemagglutination inhibition assay (PLL3 with erythrocytes of blood group O); format: cell-based; details: PLL3 50 μM; for inhibition of hemagglutination: blood group O erythrocytes, saccharide 100 to 0.1 mM; for minimal inhibitory concentration (MIC) of hemagglutination: erythrocytes of blood group O 10% (v/v)
Description: For the hemagglutination inhibition assay, the PLL3 was mixed with serially diluted saccharides (L-fucose, αMeFuc, D-galactose, D-glucose, and 3-O-methyl-D-glucose) dissolved in PBS buffer, and mixtures were incubated for 15 min at room temperature. Subsequently, erythrocytes of blood group O were added into the mixture with following incubation for 15 min. The final concentration was 50 μM for the PLL3 and 10% (v/v) for erythrocytes. Concentrations of L-fucose and αMeFuc ranged from 50 to 0.05 mM. Concentrations of D-galactose, D-glucose, and 3-O-methyl-D-glucose ranged from 100 to 0.1 mM. Each sample was observed under the optical microscope (Olympus IX81 with camera DP72; 200x magnification; SW CellSens Dimension, Olympus corporation, Tokyo, Japan).

PLL3 [4] = target: T1, PLL3; test: Isothermal titration calorimetry (ITC); format: binding
Description: ITC experiments were carried out using an AutoITC200 calorimeter (Malvern, UK) at 25 °C. The purified lectin was dialyzed against 20 mM Tris/HCl, 150 mM NaCl, pH 7.5 buffer before measurements. Individual ligands (L-fucose, αMeFuc, D-galactose, D-glucose, 3-O-methyl-D-glucose, and decavalent fucosylated glycoclusters 4a and 4b) were dissolved in the same buffer. PLL3 (100 μM) in the cell was titrated by the successive addition (2.0 μL) of the ligand in the syringe (20 mM for monosaccharides, 1 mM for multivalent fucosides). Experiments with monosaccharides were performed at stirring 750 rpm with a reference power of 10 μcal s^−1. Experiments with multivalent fucosides were performed at stirring 500 rpm with a reference power of 6 μcal s^−1. Titrations were carried out in three independent measurements for each ligand. Blank measurements were subtracted from collected data. For multivalent fucosides, two blank measurements were performed: titration of the buffer into the cell with PLL3 and titration of the buffer into the buffer. For monosaccharides, the additional blank measurement, the titration of a given ligand into the cell with buffer, was performed. The data were evaluated in software MicroCal PEAQ-ITC Analysis Software (Malvern, UK) by using the global fit method. Integrated heat effects were analyzed by nonlinear regression.

PLL3 [5] = target: T1, PLL3; test: SPR inhibition test on immobilized OMeDis; format: binding
Description: as §1
SPR inhibition tests were carried out on a channel with immobilized OMeDis using the same buffer and flow rate values as those for the binding studies. The final concentration of the lectin was 20 μM. PLL3 was mixed with serially diluted saccharides (50–0.05 mM for L-fucose; 12.5–0.013 mM for αMeFuc; 200–0.2 mM for 3-O-methyl-D-glucose; and 400–0.4 mM for D-glucose and D-galactose) and injected onto the chip. The lectin sample without ligand was used as a control with 0% inhibition effect. The response of blank channel as well as the response of corresponding saccharides were subtracted from the response of lectin bound to the OMeDis surface at equilibrium. A final response was plotted against the concentration of inhibitor in order to determine IC50 (concentration of inhibitor resulting in 50% inhibition of binding).

PLL3 [6] = target: T1, PLL3; test: Glycan array screening with DyLight 488-labeled PLL3; format: binding; details: PLL3 200 μg mL^-1, hexaplicates
Text: Purified PLL3 protein was labeled with DyLight 488 NHS Ester (Thermo Scientific, Rockford, MI, USA) according to the manual instructions of the manufacturer. The unbound dye was removed from the solution using the Zeba Spin Desalting Column (Thermo scientific). The labeled lectin was used for glycan array screening using a glycan microarray chip (Semiotik, Moscow, Russia; chip format OSPS280715; slide number 10085636) containing over 600 mammalian and bacterial glycans (all in hexaplicates). The glycan microarray chip was incubated in 1.0 mL of PBS buffer supplemented with 0.1% (v/v) Tween 20 and placed in a humid chamber for 15 min (37 °C, 40 rpm). Then, the buffer was replaced by 0.5 mL PLL3 (200 μg mL^−1) diluted in PBS buffer with 0.1% Tween 20 and 1% (w/v) bovine serum albumin (Serva, Germany). After incubation (90 min, 37 °C, 40 rpm), the chip was washed by decreasing concentrations of PBS with 0.1% Tween 20, followed by multiple immersions in ultrapure water. Subsequently, the chip was dried by air blow. Fluorescence was read with a scanner InnoScan 1100 AL (Innopsys, Carbonne, France) with a 488 nm laser at 20 °C. The data were analyzed with the software Mapix 8.2.2 and an online glycan chip converter (Semiotik, https://rakitko.shinyapps.io/semiotik). The relative fluorescent response of PLL3 binding was calculated from hexaplicates of each glycan immobilized onto the chip. Only glycans with a response three or more times higher than trehalose and concurrently with a signal-to-noise ratio higher than two were considered as significant binders.

[7] = stoichiometry fixed to 3, 25 °C, read-out: KD
[8] = stoichiometry fixed to 4, 25 °C, read-out: KD
[9] = stoichiometry fixed to 5, 25 °C, read-out: KD
[10] = stoichiometry fixed to 6, 25 °C, read-out: KD
[11] = stoichiometry fixed to 7, 25 °C, read-out: KD

T1 sequence (Q7N8I7 entry or part of it): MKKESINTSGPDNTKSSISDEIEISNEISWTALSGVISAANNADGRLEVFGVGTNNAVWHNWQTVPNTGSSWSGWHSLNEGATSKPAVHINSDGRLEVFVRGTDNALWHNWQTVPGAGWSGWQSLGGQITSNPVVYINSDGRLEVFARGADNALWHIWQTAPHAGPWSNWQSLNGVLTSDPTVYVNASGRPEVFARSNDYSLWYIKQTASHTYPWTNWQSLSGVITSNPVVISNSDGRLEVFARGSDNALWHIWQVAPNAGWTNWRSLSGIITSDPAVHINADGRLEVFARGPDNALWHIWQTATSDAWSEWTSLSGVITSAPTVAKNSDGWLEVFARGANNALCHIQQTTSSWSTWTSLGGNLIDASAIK

Compound | inhibition of hemagglutination (PLL3 [3]) | Kd (PLL3 [4]; [7]) | Kd (PLL3 [4]; [8]) | Kd (PLL3 [4]; [9]) | Kd (PLL3 [4]; [10]) | Kd (PLL3 [4]; [11]) | further results
3,6-O-Me2-Glcβ1-4(2,3-O-Me2)Rhaα [OMeDis] | – | – | – | – | – | – | Kd (PLL3 [1]): 0.607 ± 0.046 mM; interaction with immobilized OMeDis, fold weaker than for PLL2 and PHL (PLL3 [2]): 10^5 fold
CO[C@@H]([C@H](O)[C@H](O)CO)[C@@H](O)C=O [3-O-methyl-D-glucose] | did not inhibit hemagglutination | 11.3 ± 1.55 mM | 11.1 ± 1.5 mM | 10.9 ± 1.5 mM | 10.7 ± 1.5 mM | 10.4 ± 1.45 mM | Kd (PLL3 [4]; text summary over stoichiometry fixed 3 to 7, read-out: KD values): > 10.4 mM; IC50 (PLL3 [5]): 26.4 ± 2.84 mM
O=C[C@H](O)[C@@H](O)[C@@H](O)[C@H](O)CO [D-galactose] | did not inhibit hemagglutination | – | – | – | – | – | Kd (PLL3 [4]; KD, stoichiometry fixed to 3, 25 °C): 2.8 ± 0.14 mM; Kd (PLL3 [4]; KD, stoichiometry fixed to 4, 25 °C): 2.7 ± 0.14 mM; Kd (PLL3 [4]; KD, stoichiometry fixed to 5, 25 °C): 2.6 ± 0.13 mM; Kd (PLL3 [4]; KD, stoichiometry fixed to 6, 25 °C): 2.5 ± 0.13 mM; Kd (PLL3 [4]; KD, stoichiometry fixed to 7, 25 °C): 2.3 ± 0.13 mM
OC[C@H]1OC(O)[C@H](O)[C@@H](O)[C@@H]1O (stereo partly drawn) [D-glucose] | did not inhibit hemagglutination | 3.7 ± 0.08 mM | 3.6 ± 0.08 mM | 3.4 ± 0.08 mM | 3.3 ± 0.07 mM | 3.1 ± 0.07 mM | inhibitory effect (PLL3 [5]; PLL3 20 μM, immobilized OMeDis, highest concentration used 400 mM): did not exhibit any inhibitory effect
C[C@H](O)[C@@H](O)[C@@H](O)[C@H](O)C=O [L-fucose] | – | 3.4 ± 0.12 mM | 3.3 ± 0.12 mM | 3.2 ± 0.11 mM | 3.1 ± 0.1 mM | 3 ± 0.09 mM | minimal inhibitory concentration (MIC) of hemagglutination (PLL3 [3]): 1560 µM; IC50 (PLL3 [5]): 2.51 ± 0.09 mM
CO[C@@H]1O[C@@H](C)[C@@H](O)[C@@H](O)[C@@H]1O [methyl α-L-fucopyranoside] | – | 0.7 ± 0.02 mM | 0.7 ± 0.03 mM | 0.6 ± 0.03 mM | 0.6 ± 0.03 mM | 0.6 ± 0.03 mM | minimal inhibitory concentration (MIC) of hemagglutination (PLL3 [3]): 780 µM; IC50 (PLL3 [5]; inhibition of interaction between PLL3 (20 μM) and immobilized OMeDis, read-out: IC50): 1.04 ± 0.05 mM
α-L-fucoside | – | – | – | – | – | – | glycan array response relative to trehalose (negative control) (PLL3 [6]): ~20 fold; Kd (PLL3 [1]): 0.322 ± 0.086 mM
